Test systems include CAKI-1; HCT-15; HL-60; IGROV-1; KM12; MDA-MB-231; MDA-MB-435; MOLT-4; NCI-H226; NCI-H460; NCI-H522; OVCAR-3; PC-3; RXF 393; SK-MEL-5; SNB-75; UO-31; M14; SK-MEL-2; T47D.
Common to all, as to assay: DTP human tumour cell line panel, 48 h

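Where inhibition never reached the appropriate level, the endpoint shown equals the highest concentration tested. Otherwise, values were interpolated linearly from a five-concentration, 48-hour dose response in 96-well plates. At the GI50, growth is halved.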 Active and inactive are the calls of the source. Rule as the data show it: active = GI50 up to about 1.1 µM and inactive = higher.

The text below walks through data of ChEMBL document CHEMBL1201862, “PubChem BioAssay data set” (2004).

In general, GI50 refers to the concentration at which growth is held to half of that of the control.

In the case of `O=C(NCc1ccccc1)c1c(O)nc2ccccc2c1O`, the GI50 with CAKI-1 is > 100 µM (inactive); with HCT-15 it was more than 100 µM; with HL-60, > 100 µM (inactive); in the assay on IGROV-1, > 100 µM (inactive); in the assay on KM12 it was > 100 µM (inactive); in the assay on MDA-MB-231, > 100 µM (inactive). Also, the GI50 with MDA-MB-435, in the assay on MOLT-4, with NCI-H226, in the assay with NCI-H460, with NCI-H522 and with OVCAR-3 was > 100 µM (inactive) in each case. Besides, the GI50 with PC-3, in the assay on RXF 393, with SK-MEL-5, with SNB-75 and with UO-31 was > 100 µM (inactive) in each case.

In the case of `COc1ccc2c(c1)CC[C@@H]1C2CC[C@]2(C)C(=C=CP(=O)(O)O)CCC12` (stereo partly specified), the GI50 with CAKI-1 is > 100 µM (inactive); in the assay with HCT-15, more than 100 µM; in the assay with IGROV-1, > 100 µM (inactive); in the assay with KM12 it was > 100 µM (inactive); in the assay on M14 it was > 100 µM (inactive); in the assay with MDA-MB-435, > 100 µM (inactive). Further, the GI50 in the assay with NCI-H226, in the assay on NCI-H460, with NCI-H522, in the assay on OVCAR-3, with PC-3 and with RXF 393 was > 100 µM (inactive) throughout. The GI50 with SK-MEL-2, in the assay on SK-MEL-5, in the assay on SNB-75 and with T47D was > 100 µM (inactive) throughout.

As to `Cn1c(=O)c(C(=O)Nc2nc(C34CC5CC(CC(C5)C3)C4)cs2)c(O)c2ccccc21`, the GI50 is 73.5 µM (inactive) in the assay with CAKI-1; more than 100 µM in the assay on HCT-15; 86.9 µM (inactive) in the assay on HL-60; 77.3 µM (inactive) with IGROV-1; > 100 µM (inactive) in the assay with KM12; 70 µM (inactive) in the assay on MDA-MB-231. The GI50 in the assay with MDA-MB-435 is > 100 µM (inactive); in the assay on MOLT-4, > 10 µM (inactive); in the assay on NCI-H226 it was 52.8 µM (inactive); in the assay with NCI-H460, > 100 µM (inactive); with NCI-H522 it was 55.3 µM (inactive); in the assay with OVCAR-3 it was > 100 µM (inactive). Further, the GI50 with PC-3 is > 100 µM (inactive); in the assay with RXF 393 it was 22.2 µM (inactive); in the assay with SK-MEL-5, > 100 µM (inactive); in the assay with SNB-75, 56.1 µM (inactive); in the assay on UO-31 it was > 100 µM (inactive).

For `COC(=O)CCC(=O)NC1c2cccc3cccc(c23)Cn2c(=O)n(C)c(=O)n21` (stereo unspecified), the GI50 with CAKI-1 was > 100 µM (inactive); in the assay with HCT-15, more than 100 µM; with IGROV-1, > 100 µM (inactive); in the assay on KM12 it was > 100 µM (inactive); in the assay on M14 it was > 100 µM (inactive); in the assay on MDA-MB-231, > 100 µM (inactive). Moreover, the GI50 in the assay with MDA-MB-435, in the assay on MOLT-4, in the assay on NCI-H460, in the assay with NCI-H522, in the assay with OVCAR-3 and in the assay with PC-3 was > 100 µM (inactive) in each case. Moreover, the GI50 in the assay with RXF 393, in the assay on SK-MEL-2, with SK-MEL-5, with SNB-75 and in the assay on UO-31 was > 100 µM (inactive) throughout.

On to `O=S(=O)(c1ccccc1)c1cccc2c1NCCC2`, for which the GI50 in the assay with CAKI-1 is 27.9 µM (inactive); in the assay on HCT-15, 32.4 µM; in the assay with HL-60 it was 21.8 µM (inactive); in the assay on IGROV-1, 52.5 µM (inactive); with KM12 it was 44.2 µM (inactive); in the assay with M14, 75.5 µM (inactive). In addition, the GI50 in the assay with MDA-MB-231 is 39.6 µM (inactive); in the assay with MDA-MB-435 it was 35.2 µM (inactive); in the assay with MOLT-4, 28.7 µM (inactive); with NCI-H226, 49.9 µM (inactive); with NCI-H460 it was 43.4 µM (inactive); in the assay on OVCAR-3 it was 50.7 µM (inactive). Moreover, the GI50 with PC-3 is 31.1 µM (inactive); with RXF 393, 27.7 µM (inactive); in the assay on SK-MEL-2 it was > 10 µM (inactive); with SK-MEL-5, 23.2 µM (inactive); with SNB-75, 26.1 µM (inactive); with UO-31, 27.5 µM (inactive).

With `COC(=O)c1sc(C(=O)OC)c2c1CSC2`, the GI50 with CAKI-1 is > 93.5 µM (inactive); in the assay with HCT-15, more than 91.2 µM; in the assay with HL-60, > 100 µM (inactive); in the assay on IGROV-1 it was > 100 µM (inactive); in the assay with KM12 it was > 100 µM (inactive); with M14, > 100 µM (inactive). For the same compound, the GI50 in the assay with MDA-MB-231 is > 100 µM (inactive); in the assay with MDA-MB-435, > 100 µM (inactive); in the assay with MOLT-4, > 100 µM (inactive); with NCI-H226 it was > 70.6 µM (inactive); in the assay on NCI-H460, > 100 µM (inactive); in the assay with NCI-H522, 76.2 µM (inactive). The GI50 is > 100 µM (inactive) in the assay on OVCAR-3; > 100 µM (inactive) in the assay with PC-3; 47.5 µM (inactive) with RXF 393; 55.8 µM (inactive) with SK-MEL-2; > 100 µM (inactive) with SK-MEL-5; 22.5 µM (inactive) with SNB-75. Also, the GI50 in the assay with UO-31 was > 100 µM (inactive).

For `COC(=O)C(=O)C(C(=O)C(=O)Nc1cccc([N+](=O)[O-])c1)c1nc2ccc(Cl)cc2nc1O` (stereo unspecified), the GI50 in the assay with CAKI-1 was 95.7 µM (inactive); with HCT-15, more than 100 µM; in the assay with HL-60, > 100 µM (inactive); in the assay with IGROV-1 it was > 100 µM (inactive); with KM12, > 100 µM (inactive); with M14, > 100 µM (inactive). The GI50 with MDA-MB-231 is 65.3 µM (inactive); in the assay with MDA-MB-435, > 100 µM (inactive); in the assay on MOLT-4 it was > 100 µM (inactive); with NCI-H226, 82.6 µM (inactive); in the assay on NCI-H460, > 100 µM (inactive); in the assay with NCI-H522, > 100 µM (inactive). Further, the GI50 is > 100 µM (inactive) with OVCAR-3; > 100 µM (inactive) in the assay on PC-3; > 100 µM (inactive) in the assay on RXF 393; > 100 µM (inactive) with SK-MEL-2; > 100 µM (inactive) in the assay on SK-MEL-5; 77.1 µM (inactive) in the assay with SNB-75. In the assay with UO-31, the GI50 was 36.7 µM (inactive).

Take `FC(F)(F)c1cnc(N/N=C(/c2ccccc2)c2ccccn2)c(Cl)c1`: the GI50 with CAKI-1 is 5.85 µM (inactive); in the assay on HCT-15 it was 1.98 µM; with IGROV-1 it was 2.83 µM (inactive); in the assay with KM12, 5.14 µM (inactive); in the assay on M14, 3.78 µM (inactive); with MDA-MB-231, 5.57 µM (inactive). Further, the GI50 was 6.87 µM (inactive) with MDA-MB-435; 2.67 µM (inactive) with MOLT-4; 13.2 µM (inactive) in the assay with NCI-H226; 3.27 µM (inactive) in the assay with NCI-H460; 1.9 µM (inactive) with NCI-H522; 3.37 µM (inactive) in the assay on OVCAR-3. The GI50 in the assay with PC-3 is 5.3 µM (inactive); in the assay with RXF 393, 12.3 µM (inactive); with SK-MEL-2 it was 8.18 µM (inactive); in the assay with SK-MEL-5, 4.29 µM (inactive); in the assay with SNB-75, 6.25 µM (inactive); in the assay on UO-31, 4.94 µM (inactive).
